# Data reported in patent US7749962B2, “Alpha 5 beta 1 and its ability to regulate the cell survival pathway” (University of Medicine & Dentistry of NJ, priority 2002, dated 2010).
# Like-named read-outs stand apart in the source and are kept apart here.
# Assays:
# MCF-7 and T-47D cells = assay: Clonogenic potential with growth factors in tissue culture; type: cell-based; conditions: growth factor 10 ng/ml
# Protocol: (§1) One thousand MCF-7 or MDA MB-231 cells per well were incubated in 24 well tissue culture plates with and without the presence of 10 ng/ml basic fibroblast growth factor (FGF-2) or epidermal growth factor (EFG). Plates were stained with crystal violet after a 5 day incubation and clones consisting of A. 29±2 cells and B. 8±2 cells were counted. C. Ten thousand T-47D cells per well were incubated in 24 well tissue culture plates coated with fibronectin with and without the presence of 10 ng/ml basic fibroblast growth factor (FGF-2) or epidermal growth factor (EFG). Plates were stained with crystal violet after 3 days and clones consisting of 8 or more cells were counted.
# (§2) MCF-7 and T-47D (1,000 cells/well) and MDA MB-231 (200 cells per well) were incubated in 24 well plates±10 ng/ml EFG or FGF-2 for 6 days, stained with crystal violet and clones with ≧29 actively growing cells (▪) or with ≦10 well spread, growth arrested cells ( ? ) were counted.
# (§3) MCF-7, SK-Br-3, MDA-MB-231, PC-3 and LNCaP cells were purchased from the American Type Culture Collection (ATCC), (Rockville, Md.). Cells were cultured in Dulbecco's Modified Eagle's Medium (DMEM) (Gibco BRL, Gaithersburg, Md.) with phenol red 15 mg/l, 2 mM glutamine, 10% heat inactivated fetal calf serum (FCS) and penicillin 50 units/ml and streptomycin 50 micrograms μg/ml (Gemini Bioproducts, Calabasas, Calif.). One to ten thousand cells were incubated on 24 well tissue culture plates that were either commercially coated for tissue culture (uncoated) or coated with 20 g fibronectin, laminin I, collagen I or collagen IV, depending on the cell type or experimental conditions described in the figure legends. Colonies were manually counted at 100× magnification after variable days in culture as described in the figure legends after removing the media and staining cells with crystal violet. Proliferation kinetics were performed as before^1 using 2% trypan blue counts on trypsinized cells on the days indicated in the figure in triplicate plates.
# MDA-MB-231 cells = assay: as above; type: cell-based; conditions: growth factor 10 ng/ml
# Protocol: as §1, §2, §3
# Akt [1] = assay: Western blot of Akt phosphorylation after ATRA; type: cell-based
# Protocol: MCF-7 cells were treated with EGF 100 ng/ml for 10 min followed by ATRA 10^−7 M or control media 2 h later for an additional 24 h. Western blots of lysates were stained with anti-phospho-Akt ab. Cells were harvested and lysates were prepared as described^2 and analyzed as before^3.
# RhoA = RhoA (Homo sapiens, UniProt P61586); conditions: target RhoA, cited from earlier work
# MCF-7 cells = assay: Clonogenicity ± fibronectin with FGF-2 and fibronectin-blocking peptide; type: cell-based; conditions: FGF-2 10 ng/ml; peptide 1 ng/ml added after 3 days, counted 6 days later
# Protocol: 10^3 MCF-7 (and T-47D, not shown) cells were incubated±fibronectin with 10 ng/ml FGF-2. Fibronectin-blocking peptide GRGDSP 1 ng/ml (American Peptide Co., Inc, Sunnyvale, Calif.) was added after 3 days and 4, 8 and 12 cell colonies were counted 6 days later.
# as §3
# integrin α5 = assay: Western blot of integrin α5 expression ± FGF-2; type: cell-based
# Protocol: A. Gene chip analysis of integrin α5 and β1 mRNA expression in MCF-7 cells incubated±FGF-2 for 3 or 5 days on fibronectin-coated plates. Densitometer quantitations normalized against GAPDH and actin mRNA standards are shown. B. Western blots of integrin α5 from cells incubated±FGF-2 for 3 days on tissue culture- or fibronectin-coated dishes. C. Indirect immunofluorescence of integrin α5 in T-47D cells on cover slips±FGF-2 10 ng/ml for 24 hours. D. Western blots of integrins α2, α3, α4, α6, β1, β3 and β4 in MCF-7 and T-47D cells incubated±FGF-2 for 3 days. Nonspecific bands were as loading controls.
# (§4) Cells were harvested and lysates were prepared as described^2 and analyzed as before^3.
# Akt [2] = assay: Western blot of Akt phosphorylation by FGF-2 on fibronectin; type: cell-based
# Protocol: Western blots of lysates from MCF-7, T-47D and MDA-MB-231 cells incubated on fibronectin-coated plates with FGF-2 for up to 5 days were stained with antibody to phospho-Akt or total Akt. […] No effect was noted on total Akt levels. Stained membrane was used as a loading control.
# as §4
# Chain of RhoA (P61586 whole entry, species assumed): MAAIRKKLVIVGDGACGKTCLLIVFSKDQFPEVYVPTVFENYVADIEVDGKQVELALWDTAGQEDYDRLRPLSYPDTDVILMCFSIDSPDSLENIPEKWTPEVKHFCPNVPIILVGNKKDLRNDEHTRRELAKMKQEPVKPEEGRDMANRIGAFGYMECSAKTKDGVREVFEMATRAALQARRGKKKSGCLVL
molecule,measurement,setting,value
"EFG: epidermal growth factor; recombinant human, R&D Systems",clonogenic potential,MCF-7 and T-47D cells,no effect
same,growth (clonogenic potential),MDA-MB-231 cells,no effect
"CC1=C(/C=C/C(C)=C/C=C/C(C)=C/C(=O)O)C(C)(C)CCC1 [ATRA, all-trans retinoic acid]",FGF-2 induced increases in total and phosphorylated Akt,Akt [1],reversed FGF-2 induced increases in total and Phosphorylated Akt
same,EGF-mediated phosphorylation of Akt,"Akt [1]; MCF-7 cells, EGF 100 ng/ml, ATRA 10^−7 M for 24 h",reversed the EGF-mediated phosphorylation of Akt
C3 transferase,ED50,RhoA,2 to 5 µg/mL
same,ED50,RhoA; listed as C3 transferase inhibitor,2 to 5 µg/mL
GRGDSP,colonies on fibronectin,MCF-7 cells,only inhibited colonies on fibronectin
same,colonies on plastic,MCF-7 cells,not on plastic
"FGF-2: fibroblast growth factor 2, basic fibroblast growth factor; recombinant human, R&D Systems",clonogenic potential,MCF-7 and T-47D cells,markedly diminished clonogenic potential
same,growth (clonogenic potential),MDA-MB-231 cells,no effect
same,integrin α5 expression,integrin α5; MCF-7 and T-47D cells on plastic or fibronectin-coated dishes,induction of integrin α5 expression
same,integrin α5 expression,"integrin α5; MDA-MB-231 cells, baseline high levels",No effect
same,phosphorylation of Akt,"Akt [2]; MCF-7 and T-47D cells on fibronectin, up to 5 days",induced phosphorylation of Akt
same,phosphorylation of Akt,"Akt [2]; MDA-MB-231 cells on fibronectin, constitutive phosphorylation",no effect on constitutive Akt phosphorylation
